# Measurements as given in ChEMBL document CHEMBL5214996, “Design, Synthesis, and Pharmacological Evaluation of Second-Generation Soluble Adenylyl Cyclase (sAC, ADCY10) Inhibitors with Slow Dissociation Rates” (J Med Chem, 2022).
# Experiments:
# [1] = target: T1, Adenylate cyclase type 10 (Homo sapiens, UniProt Q96PN6)
# [2] = target: Adenylate cyclase type 10 (Rattus norvegicus, UniProt Q9Z286); experiment: Inhibition of rat ADCY10 overexpressed […] assessed as IBMX stimulated cAMP accumulation preincubated for 10 mins followed by IBMX stimulation and measured after 5 mins by ELISA; type: cell-based, 4-4 cell
# Sequence of Adenylate cyclase type 10 (Rattus norvegicus, UniProt Q9Z286) (Q9Z286 whole entry): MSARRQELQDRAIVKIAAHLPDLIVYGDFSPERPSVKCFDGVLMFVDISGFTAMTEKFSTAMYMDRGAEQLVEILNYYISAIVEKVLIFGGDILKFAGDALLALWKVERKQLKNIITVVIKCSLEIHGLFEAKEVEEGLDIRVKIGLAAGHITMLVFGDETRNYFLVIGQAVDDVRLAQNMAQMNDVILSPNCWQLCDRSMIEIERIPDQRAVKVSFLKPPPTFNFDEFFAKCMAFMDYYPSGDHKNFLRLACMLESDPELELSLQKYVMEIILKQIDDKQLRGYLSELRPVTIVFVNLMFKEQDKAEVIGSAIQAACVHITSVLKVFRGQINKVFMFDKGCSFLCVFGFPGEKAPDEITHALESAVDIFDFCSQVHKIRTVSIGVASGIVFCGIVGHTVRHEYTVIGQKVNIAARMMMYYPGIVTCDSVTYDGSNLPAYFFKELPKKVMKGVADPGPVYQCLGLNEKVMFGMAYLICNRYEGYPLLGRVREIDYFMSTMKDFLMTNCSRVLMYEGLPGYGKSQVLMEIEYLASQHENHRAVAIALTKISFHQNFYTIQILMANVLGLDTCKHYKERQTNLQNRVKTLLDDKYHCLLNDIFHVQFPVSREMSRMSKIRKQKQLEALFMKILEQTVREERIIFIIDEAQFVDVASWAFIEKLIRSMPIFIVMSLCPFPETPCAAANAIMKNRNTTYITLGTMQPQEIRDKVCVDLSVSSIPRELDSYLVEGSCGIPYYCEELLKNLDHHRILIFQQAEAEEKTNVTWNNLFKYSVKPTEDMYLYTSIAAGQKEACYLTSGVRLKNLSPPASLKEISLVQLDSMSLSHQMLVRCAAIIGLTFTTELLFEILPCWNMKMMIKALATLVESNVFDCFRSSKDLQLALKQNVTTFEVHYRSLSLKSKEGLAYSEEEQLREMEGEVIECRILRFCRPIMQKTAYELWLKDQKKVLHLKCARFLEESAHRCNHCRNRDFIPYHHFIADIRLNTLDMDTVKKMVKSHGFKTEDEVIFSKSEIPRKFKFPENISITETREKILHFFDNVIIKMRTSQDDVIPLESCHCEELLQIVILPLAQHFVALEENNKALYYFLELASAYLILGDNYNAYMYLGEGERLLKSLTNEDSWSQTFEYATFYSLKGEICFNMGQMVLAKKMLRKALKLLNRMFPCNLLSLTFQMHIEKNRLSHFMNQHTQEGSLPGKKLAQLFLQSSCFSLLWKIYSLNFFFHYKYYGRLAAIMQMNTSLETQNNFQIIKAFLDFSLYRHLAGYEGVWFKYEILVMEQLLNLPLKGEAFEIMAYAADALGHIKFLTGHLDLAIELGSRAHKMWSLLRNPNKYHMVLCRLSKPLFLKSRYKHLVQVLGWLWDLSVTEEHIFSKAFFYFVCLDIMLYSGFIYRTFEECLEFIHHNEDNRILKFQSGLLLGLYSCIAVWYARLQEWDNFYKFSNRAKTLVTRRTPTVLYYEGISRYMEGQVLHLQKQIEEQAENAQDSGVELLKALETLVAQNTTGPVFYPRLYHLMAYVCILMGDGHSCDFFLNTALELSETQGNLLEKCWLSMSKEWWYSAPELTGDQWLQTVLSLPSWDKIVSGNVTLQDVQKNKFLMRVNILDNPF
# [3] = Permeability of compound at pH 7.4 at 10 uM incubated for 3 hrs by PAMPA based LC/MS/MS analysis; type: ADME; details: pH 7.4, 3 h
# [4] = Cmax in CD-1 mouse at 2 mg/kg,iv and measured upto 24 hrs by LC-MS analysis; type: ADME, organism-based; design: time < 24 hrs, dose 2 mg/kg, route iv; details: in vivo
# [5] = Cmax in CD-1 mouse at 10 mg/kg,po and measured upto 24 hrs by LC-MS analysis; type: ADME, organism-based; design: dose 10 mg/kg, time < 24 hrs, route po; details: in vivo
# [6] = Kinetic solubility of compound by UV spectroscopy analysis; type: physicochemical; details: read-out: Kinetic_solubility
# [7] = 1-Octanol/water partition coefficient, logD of the compound at pH 7.4 by chromatographic analysis; type: physicochemical
# [8] = Half life in CD-1 mouse at 2 mg/kg,iv and measured upto 24 hrs by LC-MS analysis; type: ADME, organism-based; details: in vivo
# [9] = Oral bioavailability in CD-1 mouse at 10 mg/kg and measured upto 24 hrs by LC-MS analysis; type: ADME, organism-based; details: in vivo
# [10] = Tmax in CD-1 mouse at 10 mg/kg,po and measured upto 24 hrs by LC-MS analysis; type: ADME, organism-based; details: in vivo
# [11] = AUC(0 to 24 hrs) in CD-1 mouse at 10 mg/kg,po and measured upto 24 hrs by LC-MS analysis; type: ADME, organism-based; design: time < 24 hrs, dose 10 mg/kg, route po; details: in vivo
# [12] = Cmax in CD-1 mouse at 50 mg/kg,po and measured upto 24 hrs by LC-MS analysis; type: ADME, organism-based; design: time < 24 hrs, dose 50 mg/kg, route po; details: in vivo
# [13] = AUC(0 to 24 hrs) in CD-1 mouse at 2 mg/kg,iv and measured upto 24 hrs by LC-MS analysis; type: ADME, organism-based; design: dose 2 mg/kg, time < 24 hrs, route iv; details: in vivo
# [14] = Cytotoxicity against […] at <20 uM; type: toxicity, cell-based; details: 4-4 cell
# [15] = AUC(0 to 24 hrs) in CD-1 mouse at 50 mg/kg,po and measured upto 24 hrs by LC-MS analysis; type: ADME, organism-based; design: time < 24 hrs, dose 50 mg/kg, route po; details: in vivo
# [16] = Tmax in CD-1 mouse at 50 mg/kg,po and measured upto 24 hrs by LC-MS analysis; type: ADME, organism-based; details: in vivo
# [17] = target: T1, Adenylate cyclase type 10; remark: listed apart in the source
# Description: Binding affinity to human recombinant His-tagged ADCY10 assessed as dissociation constant and measured for 600 sec by SPR analysis
# T1 sequence (Q96PN6 whole entry): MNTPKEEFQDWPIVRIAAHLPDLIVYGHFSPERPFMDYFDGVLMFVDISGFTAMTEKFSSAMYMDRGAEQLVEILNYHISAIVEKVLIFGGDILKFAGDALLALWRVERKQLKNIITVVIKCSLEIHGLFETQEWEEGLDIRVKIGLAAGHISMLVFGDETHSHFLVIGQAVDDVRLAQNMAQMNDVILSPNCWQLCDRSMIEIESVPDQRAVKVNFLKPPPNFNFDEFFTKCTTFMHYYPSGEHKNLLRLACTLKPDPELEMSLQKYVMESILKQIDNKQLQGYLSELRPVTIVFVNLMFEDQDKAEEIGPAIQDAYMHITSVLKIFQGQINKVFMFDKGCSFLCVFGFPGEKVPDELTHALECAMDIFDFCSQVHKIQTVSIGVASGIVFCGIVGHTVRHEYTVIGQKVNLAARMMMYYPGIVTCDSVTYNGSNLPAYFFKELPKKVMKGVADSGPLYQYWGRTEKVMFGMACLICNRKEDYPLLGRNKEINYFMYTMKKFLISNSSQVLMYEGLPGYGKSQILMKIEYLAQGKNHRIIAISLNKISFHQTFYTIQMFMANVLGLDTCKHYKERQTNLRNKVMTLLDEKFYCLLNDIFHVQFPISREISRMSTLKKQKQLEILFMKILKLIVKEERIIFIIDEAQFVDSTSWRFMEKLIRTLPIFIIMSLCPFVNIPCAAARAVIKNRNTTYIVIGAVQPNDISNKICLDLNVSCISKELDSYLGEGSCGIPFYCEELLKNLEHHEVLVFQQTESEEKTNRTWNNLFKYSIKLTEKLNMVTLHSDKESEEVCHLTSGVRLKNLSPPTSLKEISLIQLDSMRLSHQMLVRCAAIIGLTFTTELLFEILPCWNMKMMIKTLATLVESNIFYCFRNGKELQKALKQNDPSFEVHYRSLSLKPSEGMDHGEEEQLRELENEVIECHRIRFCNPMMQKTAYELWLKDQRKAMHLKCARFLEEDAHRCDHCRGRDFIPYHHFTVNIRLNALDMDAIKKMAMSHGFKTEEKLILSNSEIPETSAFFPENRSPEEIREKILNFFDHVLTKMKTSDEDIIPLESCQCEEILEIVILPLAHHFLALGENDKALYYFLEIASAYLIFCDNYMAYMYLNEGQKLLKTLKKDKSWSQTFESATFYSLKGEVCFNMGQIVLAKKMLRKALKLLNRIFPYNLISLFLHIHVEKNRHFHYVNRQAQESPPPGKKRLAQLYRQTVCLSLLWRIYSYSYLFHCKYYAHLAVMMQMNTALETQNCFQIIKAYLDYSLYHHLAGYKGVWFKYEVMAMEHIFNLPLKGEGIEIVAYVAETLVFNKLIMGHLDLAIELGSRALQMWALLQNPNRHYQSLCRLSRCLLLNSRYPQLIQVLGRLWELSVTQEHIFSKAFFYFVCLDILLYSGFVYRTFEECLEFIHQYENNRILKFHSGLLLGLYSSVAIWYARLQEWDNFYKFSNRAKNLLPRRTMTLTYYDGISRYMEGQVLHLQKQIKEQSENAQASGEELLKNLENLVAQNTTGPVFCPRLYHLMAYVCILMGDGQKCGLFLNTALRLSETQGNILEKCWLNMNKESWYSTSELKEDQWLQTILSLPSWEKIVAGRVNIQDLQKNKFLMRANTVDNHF
SMILES,IC50 [2] [µM],IC50 [1] [µM],also measured
Nc1nc(Cl)cc(-c2nn(C(F)F)cc2Cc2ccccc2)n1,,0.829,
CNC(=O)c1ccccc1Cc1cn(C)nc1-c1cc(Cl)nc(N)n1,,1.24,
Nc1nc(Cl)cc(-c2nc3ccccn3c2Cc2ccccc2)n1,,0.716,
Cn1cc(Cc2cccc(Cl)c2)c(-c2cc(Cl)nc(N)n2)n1,,0.389,
Nc1nc(Cl)cc(-c2nn3ccccc3c2Cc2ccccc2)n1,,0.112,
CNC(=O)c1cccc(Cc2cn(C)nc2-c2cc(Cl)nc(N)n2)c1,,1.88,
Nc1nc(Cl)cc(-c2nn(C(F)F)cc2Cc2ccccc2OCCN2CCOC[C@H]2CO)n1,,,permeability [3]: 463 nm/s; Cmax [4]: 2.5 µM; Cmax [5]: 0.45 µM; solubility kinetic [6]: 0.079 mg/mL; logD [7]: 2.89; t1/2 [8]: 55.8 min; F [9]: 11%; Tmax [10]: 15 min; AUC [11]: 410 nM·h; Cmax [12]: 6.1 µM; AUC [13]: 780 nM·h; Activity [14]: Non-Toxic; AUC [15]: 5460 nM·h; Tmax [16]: 15 min
COc1ccccc1Cc1cn(C)nc1-c1cc(Cl)nc(N)n1,,0.067,
Cn1cc(Cc2ccc(Cl)cc2)c(-c2cc(Cl)nc(N)n2)n1,,2.58,
Nc1nc(Cl)cc(-c2nn(C(F)F)cc2Cc2ccccc2OCC(=O)N2CCOCC2)n1,0.0377,0.0242,Kd [17]: 0.0047 µM
COC(=O)[C@H]1COCCN1CCOc1ccccc1Cc1cn(C(F)F)nc1-c1cc(Cl)nc(N)n1,0.0025,,
Cn1cc(Cc2ccccc2Cl)c(-c2cc(Cl)nc(N)n2)n1,,0.064,

# Second part, led by results:
IC50 [2] [µM],SMILES,IC50 [1] [µM],also measured
0.0146,Nc1nc(Cl)cc(-c2nn(C(F)F)cc2Cc2ccccc2OCCN2CCS(=O)(=O)CC2)n1,,
0.0019,Nc1nc(Cl)cc(-c2nn(C(F)F)cc2Cc2ccccc2OCCN2CCOCC2)n1,,
0.0167,CC1(O)CCN(CCOc2ccccc2Cc2cn(C(F)F)nc2-c2cc(Cl)nc(N)n2)CC1,,
0.0055,Nc1nc(Cl)cc(-c2nn(C(F)F)cc2Cc2ccccc2OCCN2CCNC(=O)C2)n1,,
0.0229,Nc1nc(Cl)cc(-c2nn(C(F)F)cc2Cc2ccccc2OCCN2CCO[C@H](CO)C2)n1,,
0.0348,Nc1nc(Cl)cc(-c2nn(C(F)F)cc2Cc2ccccc2OCCN2CCO[C@@H](CO)C2)n1,,
